Where “and” joins values, the source holds several entries; their conditions need not be identical. Equal values may be shown once.
What was measured:
[1] = molecular target: T1, recombinant human MMP-9 mixture (± 70% monomers and ± 30% trimers) (Homo sapiens, UniProt P14780); assay: Fluorogenic peptide (OmniMMP) degradation assay, recombinant MMP-9 mixture; type: biochemical; conditions: recombinant human MMP-9 (Sf9) mix
T1 construct: made in house; host or cells: Sf9 insect cells
Protocol: Compounds 5 and 7 were synthesized as previously reported. Full-length human proMMP-9 was produced by recombinant expression in Sf9 insect cells and purified by gelatin-Sepharose chromatography as previously described. Stable full-length proMMP-9 monomers and trimers were separated by glycerol gradient ultracentrifugation as previously described. ProMMP-9 mixture and the separated monomers and trimers were activated by incubation with the catalytic domain of MMP-3 (cat. No. 444217, Merck Millipore, Darmstadt, Germany) as previously described. Activation of proMMP-9 was confirmed by a band shift of ±10 kDa, corresponding to the removal of the auto-inhibitory propeptide domain and by detection of gelatinolytic activity with a previously described gelatin degradation assay. MMP-9 monomers and trimers purified from human neutrophils were purchased (Cat. No. 444,231 and 444232, Sigma-Aldrich, St. Louis, MO, USA). Examples of sample purities and activations can be found in Supplementary Figure S1. Recombinant human proMMP-2 (CHO cell-derived), proMMP-3 (NS0 cell-derived), proMMP-7 (NS0 cell-derived) and proMMP-8 (NS0 cell-derived) were purchased from R & D systems (Minneapolis, MN, USA), dissolved in assay buffer (150 mM NaCl, 5 mM CaCl2, 0.01% Tween-20, 50 mM Tris, pH 7.4) to a concentration of 100 µg/mL and activated by incubation with 1 mM p-aminophenylmercuric acetate for, respectively, 1h, 6h, 2h and 1h. Activation of MMPs was confirmed by a band shift of approximately 10 kDa, corresponding to the removal of the propeptide domain. MMP-14/MT1-MMP (NS0 cell-derived) was also purchased from R & D systems (Minneapolis, MN, USA) and activated by incubation with recombinant human furin (cat. No. 1503-SE-010, R & D systems, Minneapolis, MO, USA) in activation buffer (50 mM Tris, 1 mM CaCl2, 0.5% Brij-35, pH 9) for 1.5 h and activity was tested in assay buffer (50 mM Tris, 3 mM CaCl2, 1 µM ZnCl2, pH 8.5). Active human neutrophil elastase (NE) was purchased from Abcam (Cambridge, UK) and for activity assays of NE the assay buffer was replaced by 200 mM Tris, pH 8.8. ADAM17/TACE (Sf 21 (baculovirus)-derived, R & D systems, Minneapolis, MO, USA) was diluted and evaluated in 25 mM Tris, 2.5 μM ZnCl2, 0.005% Brij-35, pH 9.0. All stocks of the compounds were evaluated for the presence of endotoxin using the EndoZyme II assay (Hyglos bioMérieux, Bernried am Starnberger See, Germany). Endotoxin levels in all concentrated stocks (2.5 mg/mL) were below the accepted limit of 0.5 EU/mL.
To determine the inhibition of gelatinolytic activity, we used a previously optimized gelatin degradation assay. […] […] […] BML-P126-0001, Enzo Life Sciences, Farmingdale, NY, USA) was used at a final concentration of 2.5 µg/mL. For ADAM17 the fluorogenic peptide Mca-PLAQAV-Dpa-RSSSR-NH2 (ES003, R & D systems, Minneapolis, MO, USA) and for neutrophil elastase the fluorogenic substrate MeOSuc-AAPV-AMC (cat. no. 324740, Merck Millipore, Darmstadt, Germany) were used. Proteolytic activity was determined by linear regression of the fluorescence curve and the percentage inhibition was calculated through comparison with the positive control (no inhibitors). When testing supernatants from human neutrophils, the assay was performed in the presence of 20 µM neutrophil elastase inhibitor (Elastase Inhibitor IV, Calbiochem, Darmstadt, Germany).

[2] = molecular target: T2, MMP-2 (Homo sapiens, UniProt P08253); assay: MMP-2 OmniMMP peptide assay; type: biochemical; conditions: OmniMMP substrate peptide
T2 construct: purchased R & D systems; host or cells: CHO cells
T2 sequence (P08253 110-660): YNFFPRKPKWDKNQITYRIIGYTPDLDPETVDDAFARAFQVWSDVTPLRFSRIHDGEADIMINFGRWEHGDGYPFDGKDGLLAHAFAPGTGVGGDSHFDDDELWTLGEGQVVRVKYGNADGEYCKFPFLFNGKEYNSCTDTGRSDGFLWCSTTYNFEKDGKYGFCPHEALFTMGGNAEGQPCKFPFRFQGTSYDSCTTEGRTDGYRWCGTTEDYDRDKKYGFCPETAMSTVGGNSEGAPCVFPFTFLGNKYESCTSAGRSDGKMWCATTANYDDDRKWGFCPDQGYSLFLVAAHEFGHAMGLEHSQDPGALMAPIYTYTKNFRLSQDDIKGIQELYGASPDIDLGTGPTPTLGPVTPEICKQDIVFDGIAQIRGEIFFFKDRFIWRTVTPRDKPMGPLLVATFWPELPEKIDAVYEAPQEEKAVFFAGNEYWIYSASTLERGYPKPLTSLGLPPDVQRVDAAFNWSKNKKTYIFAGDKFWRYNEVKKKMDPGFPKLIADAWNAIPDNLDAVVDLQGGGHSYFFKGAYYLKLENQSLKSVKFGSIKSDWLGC
Protocol: Compounds 5 and 7 were synthesized as previously reported. Full-length human proMMP-9 was produced by recombinant expression in Sf9 insect cells and purified by gelatin-Sepharose chromatography as previously described. Stable full-length proMMP-9 monomers and trimers were separated by glycerol gradient ultracentrifugation as previously described. ProMMP-9 mixture and the separated monomers and trimers were activated by incubation with the catalytic domain of MMP-3 (cat. No. 444217, Merck Millipore, Darmstadt, Germany) as previously described. Activation of proMMP-9 was confirmed by a band shift of ±10 kDa, corresponding to the removal of the auto-inhibitory propeptide domain and by detection of gelatinolytic activity with a previously described gelatin degradation assay. […] ADAM17/TACE (Sf 21 (baculovirus)-derived, R & D systems, Minneapolis, MO, USA) was diluted and evaluated in 25 mM Tris, 2.5 μM ZnCl2, 0.005% Brij-35, pH 9.0. All stocks of the compounds were evaluated for the presence of endotoxin using the EndoZyme II assay (Hyglos bioMérieux, Bernried am Starnberger See, Germany). […]
To determine the inhibition of gelatinolytic activity, we used a previously optimized gelatin degradation assay. […] Proteolytic activity was determined by linear regression of the fluorescence curve and the percentage inhibition was calculated through comparison with the positive control (no inhibitors). […]

T1 sequence (P14780 107-707 limits assumed): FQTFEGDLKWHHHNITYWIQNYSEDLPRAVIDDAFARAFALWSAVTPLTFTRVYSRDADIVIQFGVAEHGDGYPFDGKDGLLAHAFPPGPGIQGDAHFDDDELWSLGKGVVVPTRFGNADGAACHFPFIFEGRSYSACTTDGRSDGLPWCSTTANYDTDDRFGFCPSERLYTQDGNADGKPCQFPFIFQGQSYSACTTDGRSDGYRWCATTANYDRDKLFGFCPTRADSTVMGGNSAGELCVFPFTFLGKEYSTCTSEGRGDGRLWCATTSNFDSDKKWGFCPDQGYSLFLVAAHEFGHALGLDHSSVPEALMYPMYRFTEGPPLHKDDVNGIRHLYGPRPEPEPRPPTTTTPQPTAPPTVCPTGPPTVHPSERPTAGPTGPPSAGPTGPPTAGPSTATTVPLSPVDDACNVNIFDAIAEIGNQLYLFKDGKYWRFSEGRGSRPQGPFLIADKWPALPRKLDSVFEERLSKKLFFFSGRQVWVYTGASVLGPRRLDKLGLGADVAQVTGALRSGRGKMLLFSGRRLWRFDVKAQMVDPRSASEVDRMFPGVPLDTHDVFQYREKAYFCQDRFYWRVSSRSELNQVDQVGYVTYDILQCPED

Structure (SMILES) | IC25 [1] | IC50 [1] | IC75 [1] | IC50 [2]
CC(C)[C@H](C(=O)O)N(CCNC(=O)c1ccccc1)S(=O)(=O)c1ccc(-c2ccccc2)cc1 [Compound 5] | 0.228 µM | 0.726 µM | 2.309 µM | 1.03 µM
CC(C)[C@H](C(=O)O)N(CCNC(=O)c1cccc(C(=O)NCCN([C@@H](C(=O)O)C(C)C)S(=O)(=O)c2ccc(-c3ccccc3)cc2)c1)S(=O)(=O)c1ccc(-c2ccccc2)cc1 [Compound 7] | 0.0014 µM | 0.015 µM | 0.169 µM | ~0.005 µM and 0.005 µM

Reference: PMC7408547, “Bivalent Inhibitor with Selectivity for Trimeric MMP-9 Amplifies Neutrophil Chemotaxis and Enables Functional Studies on MMP-9 Proteoforms” (Cells, 2020)
